Source: publication PMC6691786, “In vitro anticancer potentiality and molecular modelling study of novel amino acid derivatives based on N^1,N^3-bis-(1-hydrazinyl-1-oxopropan-2-yl) isophthalamide” (Journal of Enzyme Inhibition and Medicinal Chemistry, 2019)
“Also recorded” adds a separate entry of the source.

Tests used:
HCT-116 cell line = assay: MTT cytotoxicity assay, colon carcinoma; format: cell-based; details: Homo sapiens; for inhibition at 100 µM: HCT-116, at 100 µM; for IC50: HCT-116, MTT, 48-h incubation, read-out: IC50 (mean ± SD)
Experimental: (§1) Human colon carcinoma (HCT-116 cell line), human lung carcinoma (A-549), human breast carcinoma (MCF-7 cell line) and human skin normal cell line (BJ-1) were obtained from Karolinska Center, Department of Oncology and Pathology, Karolinska Institute and Hospital, Stockholm, Sweden. IC50 values were performed using SPSS computer program (SPSS for windows, statistical analysis software package/version 9/1989 SPSS Inc., Chicago, IL).
(§2) The procedure was done in laminar air flow cabinet bio safety class II level. Culturing and sub culturing were carried out according to Thabrew et al.[32]. Doxorubicin was used as a positive control. DMSO used as negative control. Cell Viability Assay was done according to Selim et al.[33] as described by Mosmann et al.[34]. The cells were seeded at concentration of 10 × 10^3 cells per well in case of MCF-7, 20 × 10^3 cells/well in case of HCT-116 cell lines using 96-well plates at 37 °C. After 48-h incubation, the medium was aspirated and 40 μl MTT salt (2.5 mg/ml) were added and further incubated for 4 h. About 200 μl 10% sodium dodecyl sulphate (SDS) was added. The absorbance was measured at 595 nm.

A-549 cell line = assay: MTT cytotoxicity assay, lung carcinoma; format: cell-based; details: Homo sapiens, A549; for inhibition at 100 µM: A-549, at 100 µM
Experimental: as §1, §2

MCF-7 cell line = assay: MTT cytotoxicity assay, breast carcinoma; format: cell-based; details: Homo sapiens, MCF7; for inhibition at 100 µM: MCF-7, at 100 µM
Experimental: as §1, §2

[1] = tested on: BJ-1 normal skin fibroblasts cell line; assay: MTT cytotoxicity on normal skin cell line; format: cell-based, human; details: BJ-1 normal skin cells, at 100 µM
Experimental: as §1, §2

EGFR = EGFR (Homo sapiens, UniProt P00533); assay: In vitro kinase inhibition ELISA assay; format: biochemical; details: read-out: IC50 (mean ± SD)
EGFR, sequence (P00533 25-1210): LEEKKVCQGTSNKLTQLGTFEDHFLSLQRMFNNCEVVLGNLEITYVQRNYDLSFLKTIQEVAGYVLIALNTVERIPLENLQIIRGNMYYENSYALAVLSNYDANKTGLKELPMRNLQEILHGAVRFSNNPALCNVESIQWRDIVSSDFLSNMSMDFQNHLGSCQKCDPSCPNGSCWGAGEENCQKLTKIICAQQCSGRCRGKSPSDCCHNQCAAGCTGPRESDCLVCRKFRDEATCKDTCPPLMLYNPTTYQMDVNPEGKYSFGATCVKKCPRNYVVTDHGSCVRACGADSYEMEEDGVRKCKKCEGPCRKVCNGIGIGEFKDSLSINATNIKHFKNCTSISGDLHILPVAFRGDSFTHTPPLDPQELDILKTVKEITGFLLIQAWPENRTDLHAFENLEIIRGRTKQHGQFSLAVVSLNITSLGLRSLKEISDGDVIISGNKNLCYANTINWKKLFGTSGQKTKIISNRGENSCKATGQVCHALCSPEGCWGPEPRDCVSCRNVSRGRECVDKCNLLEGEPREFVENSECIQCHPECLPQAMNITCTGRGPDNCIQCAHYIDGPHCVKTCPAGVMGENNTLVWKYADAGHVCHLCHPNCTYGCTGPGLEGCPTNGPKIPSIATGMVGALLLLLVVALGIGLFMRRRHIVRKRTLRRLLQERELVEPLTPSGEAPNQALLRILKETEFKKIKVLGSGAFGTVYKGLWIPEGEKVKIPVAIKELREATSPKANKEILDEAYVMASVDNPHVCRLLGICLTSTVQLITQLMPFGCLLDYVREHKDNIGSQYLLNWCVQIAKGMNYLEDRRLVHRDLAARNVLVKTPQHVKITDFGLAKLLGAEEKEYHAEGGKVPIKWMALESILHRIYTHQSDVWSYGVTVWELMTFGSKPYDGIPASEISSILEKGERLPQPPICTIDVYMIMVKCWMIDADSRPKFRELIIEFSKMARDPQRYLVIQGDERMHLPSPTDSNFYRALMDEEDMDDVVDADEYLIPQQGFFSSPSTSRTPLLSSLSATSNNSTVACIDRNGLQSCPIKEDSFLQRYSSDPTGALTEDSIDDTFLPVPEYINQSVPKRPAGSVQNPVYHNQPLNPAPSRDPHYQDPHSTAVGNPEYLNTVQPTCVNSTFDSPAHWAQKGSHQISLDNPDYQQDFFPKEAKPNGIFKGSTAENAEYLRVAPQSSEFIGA
Experimental: The in vitro enzyme inhibition assessment for compound 5 was performed at confirmatory diagnostic unit, Vacsera, Egypt.

VEGFR-2 = VEGFR-2 (Homo sapiens, UniProt P35968); assay: In vitro kinase inhibition ELISA assay; format: biochemical; details: VEGFR-2 kinase, read-out: IC50 (mean ± SD)
VEGFR-2, sequence (P35968 20-1356): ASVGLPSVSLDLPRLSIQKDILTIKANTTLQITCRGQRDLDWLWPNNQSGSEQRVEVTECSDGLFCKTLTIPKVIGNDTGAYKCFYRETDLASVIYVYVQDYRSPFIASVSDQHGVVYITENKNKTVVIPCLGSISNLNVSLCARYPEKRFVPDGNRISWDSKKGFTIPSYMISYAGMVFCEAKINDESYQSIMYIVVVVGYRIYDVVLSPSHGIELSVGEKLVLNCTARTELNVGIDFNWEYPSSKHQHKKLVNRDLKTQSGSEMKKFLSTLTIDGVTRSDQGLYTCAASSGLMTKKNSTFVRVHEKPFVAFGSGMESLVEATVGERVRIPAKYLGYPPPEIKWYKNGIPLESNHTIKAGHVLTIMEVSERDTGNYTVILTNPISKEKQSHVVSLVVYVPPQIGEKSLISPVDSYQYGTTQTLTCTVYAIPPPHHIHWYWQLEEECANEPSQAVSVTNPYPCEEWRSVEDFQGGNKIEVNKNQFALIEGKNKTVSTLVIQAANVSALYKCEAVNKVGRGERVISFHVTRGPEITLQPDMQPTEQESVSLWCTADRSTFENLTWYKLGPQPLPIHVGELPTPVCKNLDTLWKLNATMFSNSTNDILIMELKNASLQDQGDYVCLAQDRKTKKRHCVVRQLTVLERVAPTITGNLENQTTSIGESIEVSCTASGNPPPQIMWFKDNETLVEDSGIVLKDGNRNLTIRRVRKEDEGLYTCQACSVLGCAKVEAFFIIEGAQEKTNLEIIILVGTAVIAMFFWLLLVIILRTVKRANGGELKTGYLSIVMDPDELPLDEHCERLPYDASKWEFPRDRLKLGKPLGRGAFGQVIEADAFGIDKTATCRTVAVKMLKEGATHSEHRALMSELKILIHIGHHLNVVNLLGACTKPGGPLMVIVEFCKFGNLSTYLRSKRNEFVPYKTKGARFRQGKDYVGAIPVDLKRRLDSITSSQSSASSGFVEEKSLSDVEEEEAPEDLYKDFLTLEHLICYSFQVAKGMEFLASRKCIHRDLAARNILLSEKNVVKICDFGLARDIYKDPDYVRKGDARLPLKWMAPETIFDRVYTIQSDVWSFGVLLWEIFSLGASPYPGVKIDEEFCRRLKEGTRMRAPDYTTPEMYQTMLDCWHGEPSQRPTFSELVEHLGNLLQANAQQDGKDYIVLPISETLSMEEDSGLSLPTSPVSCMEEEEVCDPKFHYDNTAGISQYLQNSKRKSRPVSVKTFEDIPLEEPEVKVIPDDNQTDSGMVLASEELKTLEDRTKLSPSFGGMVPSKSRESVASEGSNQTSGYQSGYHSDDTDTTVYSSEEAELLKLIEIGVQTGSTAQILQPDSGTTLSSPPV

CDK-2 = CDK-2 (Homo sapiens, UniProt P24941); assay: In vitro kinase inhibition ELISA assay; format: biochemical; details: CDK-2 kinase, read-out: IC50 (mean ± SD)
c-kit = c-kit (Homo sapiens, UniProt P10721); assay: In vitro kinase inhibition ELISA assay; format: biochemical; details: read-out: IC50 (mean ± SD)
c-kit, sequence (P10721 26-976): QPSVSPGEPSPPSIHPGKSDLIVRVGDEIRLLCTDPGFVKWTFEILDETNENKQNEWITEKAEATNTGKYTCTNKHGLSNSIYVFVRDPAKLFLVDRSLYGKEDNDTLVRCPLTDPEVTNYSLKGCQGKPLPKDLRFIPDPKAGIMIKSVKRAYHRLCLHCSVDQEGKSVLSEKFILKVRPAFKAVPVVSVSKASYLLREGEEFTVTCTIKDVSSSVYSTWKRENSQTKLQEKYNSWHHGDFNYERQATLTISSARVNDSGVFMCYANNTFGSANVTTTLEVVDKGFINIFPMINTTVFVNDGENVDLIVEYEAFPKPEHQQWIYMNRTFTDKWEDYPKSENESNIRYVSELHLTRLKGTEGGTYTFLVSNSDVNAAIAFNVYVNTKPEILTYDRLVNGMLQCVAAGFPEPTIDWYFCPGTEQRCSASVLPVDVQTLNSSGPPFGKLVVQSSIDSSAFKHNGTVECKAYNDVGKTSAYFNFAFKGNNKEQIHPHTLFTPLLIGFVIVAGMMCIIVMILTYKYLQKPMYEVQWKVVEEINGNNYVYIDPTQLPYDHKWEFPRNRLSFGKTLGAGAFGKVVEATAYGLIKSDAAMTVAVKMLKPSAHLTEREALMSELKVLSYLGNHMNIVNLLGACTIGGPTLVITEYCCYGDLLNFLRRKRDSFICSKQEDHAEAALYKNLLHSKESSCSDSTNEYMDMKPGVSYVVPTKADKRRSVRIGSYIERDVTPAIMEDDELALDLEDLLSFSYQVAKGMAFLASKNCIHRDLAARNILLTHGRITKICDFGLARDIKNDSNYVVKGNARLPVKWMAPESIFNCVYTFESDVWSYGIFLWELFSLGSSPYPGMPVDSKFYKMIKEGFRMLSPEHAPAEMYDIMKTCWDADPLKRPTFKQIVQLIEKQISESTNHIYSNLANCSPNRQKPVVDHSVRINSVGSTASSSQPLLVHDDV

[2] = tested on: HCT-116, A-549 and MCF-7 cell lines; assay: Preliminary cytotoxicity screen on the three tumour cell lines (MTT); format: cell-based, human; details: for inhibition at 100 µM: Homo sapiens, range over HCT-116, A-549, MCF-7, read-out: % of inhibition towards the three tested cancer cell lines; for cytotoxic activity (in words, SAR): HCT-116, A-549, MCF-7, compared with related derivatives
Experimental: as §1, §2

Bax = Bax protein level ELISA in MCF-7 cells; format: cell-based, human; details: compound at IC50 for 24 h
Experimental: Bax protein levels were evaluated according to Onur et al.. Monoclonal antibody specific to Bax captured on the plate is added. After incubation, Strep avid in conjugated to Horseradish peroxidase (HRP) is added. The reaction is terminated by the addition of acid and optical density of the colour produced measured at 450 nm.

BCL-2 = BCL-2 level ELISA in MCF-7 cells; format: cell-based, human; details: compound at IC50 for 24 h, compared to control
Experimental: BCL-2 in the samples and standards were estimated according to Barbareschi et al.. A biotin-conjugated antibody was added followed by streptavidin-HRP. The reaction is then terminated by addition of acid and absorbance was measured at 450 nm.

p53 = p53 level ELISA in MCF-7 cells; format: cell-based, human; details: compound at IC50 for 24 h, compared to control
Experimental: Human p53 present in the sample or standard binds to antibodies adsorbed to the microwells. A biotin-conjugated is added. After incubation and dispense of unbound biotin-conjugated streptavidin HRP is added. The reaction is terminated by addition of acid and absorbance is measured at 450 nm[37].

CASP-7 = assay: Human caspase-7 (CASP-7) estimation ELISA in MCF-7 cells; format: cell-based
Experimental: The micro ELISA plate provided in this kit pre-coated with CASP7-specific antibody. A biotinylated CASP7 antibody and Avidin–HRP conjugate was added. Aspire the excess components. The substrate solution was added wells that contain CASP7, biotinylated detection antibody and Avidin–HRP conjugate will appear blue in colour. The colour turns yellow followed the addition of sulphuric acid solution. The optical density (OD) was measured at a wavelength of 450 nm ± 2 nm[38].

tubulin beta (TUBb) = assay: ELISA kit for tubulin beta (TUBb) in MCF-7 cells; format: cell-based, human; details: in comparison with colchicine
Experimental: MCF-7 cells were inoculated at concentration 1.2–1.8 × 10,000 cells/well using DMEM (supplemented with 10% FBS and 1% penicillin–streptomycin). Tested compound added for 18–24 h before the enzyme assay for Tubulin. Avidin conjugated to HRP is added to each microplate well and incubated. […] Sulphuric acid solution added to terminate enzymatic reaction. Colour change is measured spectrophotometrically at a wavelength of 450 nm ± 10 nm[39].

MCF-7 cells = assay: DNA fragmentation by DPA assay; format: cell-based, human
Experimental: DNA fragmentation of the cells was assayed, as previously described[40]^,[41]. Briefly, the cells were lysed with 20 mM EDTA, 0.5% (v/v) Triton X-100, and […] Tris (pH 8.0) for 15 min on ice. The cells were then centrifuged for 20 min, at 27,000×g, to separate intact chromatin from DNA fragments. The amount of DNA was measured by using a diphenylamine reagent. The optical density is measured at 600 nm.

Which melting point does the source give for COc1ccc(C2SCC(=O)N2NC(=O)C(C)NC(=O)c2cccc(C(=O)NC(C)C(=O)NN3C(=O)CSC3c3ccc(OC)cc3)c2)cc1 (centres unmarked) here?
Its melting point is 242 to 244 °C.

Which results are given for CC(NC(=O)c1cccc(C(=O)NC(C)C(=O)NN)c1)C(=O)NN (centres unmarked) [Compound 4, N^1,N^3-bis-(1-hydrazinyl-1-oxopropan-2-yl) isophthalamide]?
inhibition at 100 µM (HCT-116 cell line): 2.3%; inhibition at 100 µM (A-549 cell line): 0.9%; inhibition at 100 µM (MCF-7 cell line): 1.8%; melting point: 232 to 234 °C

Which results are given for CC(NC(=O)c1cccc(C(=O)NC(C)C(=O)N/N=C2/C(=O)Nc3ccccc32)c1)C(=O)N/N=C1\C(=O)Nc2ccccc21 (centres unmarked) [Compound 5, N^1-(1-oxo-1-(-2-(2-oxoindolin-3-ylidene) hydrazinyl)propan-2-yl)-N^3-(1-oxo-1-(-2-(2-oxoindolin-3-ylidene) hydrazinyl)propan-2-yl) isophthalamide]?
IC50 (HCT-116 cell line): 14 nM; % inhibition (cytotoxicity on normal cells) [1]: 32.6%; IC50 (EGFR): 780 ± 1250 nM; IC50 (VEGFR-2): 3170 ± 1000 nM; IC50 (CDK-2): 6240 ± 1210 nM; IC50 (c-kit): 2850 ± 40 nM; inhibition at 100 µM [2]: 72.5 to 98.3%; Bax/BCL-2 ratio (Bax): significant elevation; also recorded: significantly elevated; Bax expression level (Bax; compared to control): significant up-expression; BCL-2 expression level (BCL-2): down-expression; p53 expression level (p53): significant up-expression; level of active CASP-7 (CASP-7): significant increase; effect on microtubule-polymer mass (tubulin polymerization, TubB) (tubulin beta (TUBb)): moderate effect; % of DNA fragmentation (MCF-7 cells): remarkable % of DNA fragmentation; melting point: 271 to 273 °C

With CC(NC(=O)c1cccc(C(=O)NC(C)C(=O)NN=C2C(=O)Nc3ccc(Cl)cc32)c1)C(=O)NN=C1C(=O)Nc2ccc(Cl)cc21 (centres unmarked) [Compound 6, N^1-(1-(-2-(5-chloro-2-oxoindolin-3-ylidene)hydrazinyl)-1-oxopropan-2-yl)-N^3-(1-(-2-(5-chloro-2-oxoindolin-3-ylidene) hydrazinyl)-1-oxopropan-2-yl)isophthalamide] as the molecule, how does the inhibition at 100 µM (HCT-116 cell line) read?
The inhibition at 100 µM was 33.1%.

And the inhibition at 100 µM (A-549 cell line)?
Its inhibition at 100 µM is 48.4%.

And the inhibition at 100 µM (MCF-7 cell line)?
The inhibition at 100 µM was 19.6%.

What about the melting point of the same molecule?
The melting point was 271 to 273 °C.

What does the source list for CC(NC(=O)c1cccc(C(=O)NC(C)c2n[nH]c(=S)o2)c1)c1n[nH]c(=S)o1 (centres unmarked) [Compound 7, N^1,N^3-bis (1-(5-thioxo-4,5-dihydro-1,3,4-oxadiazol-2-yl)ethyl) isophthalamide]?
inhibition at 100 µM (MCF-7 cell line): 77.5%; inhibition at 100 µM [2]: 72.5 to 98.3%; melting point: 132 to 134 °C

With CC(NC(=O)c1cccc(C(=O)NC(C)C(=O)NN=C[C@H](O)[C@@H](O)[C@H](O)CO)c1)C(=O)NN=C[C@H](O)[C@@H](O)[C@H](O)CO (stereo partly drawn) [Compound 8, N^1,N^3-bis (1-oxo-1-(-2-((2S, 3 R, 4 R)-2,3,4,5-tetrahydroxypentylidene) hydrazinyl)propan-2-yl) isophthalamide] as the molecule, how does the “cytotoxic activity (in words, SAR)” value [2] read?
Its value is “dramatic drop in the anticancer effect”.

With CC(NC(=O)c1cccc(C(=O)NC(C)C(=O)NN=C[C@@H](O)[C@H](O)[C@H](O)CO)c1)C(=O)NN=C[C@@H](O)[C@H](O)[C@H](O)CO (stereo partly drawn) [Compound 9, N^1,N^3-bis (1-oxo-1-(-2-((2R, 3S, 4R)-2,3,4,5-tetrahydroxypentylidene) hydrazinyl)propan-2-yl) isophthalamide] as the molecule, how does the “cytotoxic activity (in words, SAR)” value [2] read?
Its value is “dramatic drop in the anticancer effect”.

For CC(NC(=O)c1cccc(C(=O)NC(C)C(=O)NN=Cc2ccc(Cl)cc2)c1)C(=O)NN=Cc1ccc(Cl)cc1 (centres unmarked) [Compound 10, N^1,N^3-bis-(1-(-2-(4-chlorobenzylidene) hydrazinyl)-1-oxopropan-2-yl) isophthalamide], which “cytotoxic activity (in words, SAR)” value [2] is on record?
Its value is “variable and noticeable increase in the cytotoxic activity”.

What about the melting point of the same molecule?
Its melting point is 296 to 298 °C.

For CC(NC(=O)c1cccc(C(=O)NC(C)C(=O)NN=Cc2ccc(F)cc2)c1)C(=O)NN=Cc1ccc(F)cc1 (centres unmarked) [Compound 11, N^1,N^3-bis-(1-(-2-(4-fluorobenzylidene) hydrazinyl)-1-oxopropan-2-yl) isophthalamide], which “cytotoxic activity (in words, SAR)” value [2] is on record?
Its value is “variable and noticeable increase in the cytotoxic activity”.

What about the melting point of the same molecule?
The melting point was 285 to 287 °C.

What does the source list for COc1ccc(C=NNC(=O)C(C)NC(=O)c2cccc(C(=O)NC(C)C(=O)NN=Cc3ccc(OC)cc3)c2)cc1 (centres unmarked) [Compound 12, N^1,N^3-bis-(1-(-2-(4-methoxybenzylidene) hydrazinyl)-1-oxopropan-2-yl) isophthalamide]?
IC50 (MCF-7 cell line; MCF-7, MTT, 48-h incubation, read-out: IC50 (mean ± SD)): 51 nM; cytotoxic activity (in words, SAR) [2]: variable and noticeable increase in the cytotoxic activity; inhibition at 100 µM [2]: 72.5 to 98.3%; melting point: 273 to 275 °C

For COc1ccc(C=NNC(=O)C(C)NC(=O)c2cccc(C(=O)NC(C)C(=O)NN=Cc3ccc(OC)c(OC)c3)c2)cc1OC (centres unmarked) [Compound 13, N^1,N^3-bis-(1-(-2-(3,4-dimethoxybenzylidene) hydrazinyl)-1-oxopropan-2-yl) isophthalamide], which “cytotoxic activity (in words, SAR)” value [2] is on record?
The value was “reduction in the activity”.

What about the melting point of the same molecule?
Its melting point is 277 to 279 °C.

Which IC50 (A-549 cell line; A-549, MTT, read-out: IC50 (mean ± SD)) does the source give for CC(NC(=O)c1cccc(C(=O)NC(C)C(=O)NN2C(=O)CSC2c2ccc(Cl)cc2)c1)C(=O)NN1C(=O)CSC1c1ccc(Cl)cc1 (centres unmarked) [Compound 14, N^1,N^3-bis-(1-(2-(4-chlorophenyl)-4-oxothiazolidin-3-ylamino)-1-oxopropan-2-yl) isophthalamide] here?
Its IC50 is 41 nM.

And the inhibition at 100 µM [2]?
The inhibition at 100 µM was 72.5 to 98.3%.

And the melting point?
Its melting point is 218 to 220 °C.

With CC(NC(=O)c1cccc(C(=O)NC(C)C(=O)NN2C(=O)CSC2c2ccc(F)cc2)c1)C(=O)NN1C(=O)CSC1c1ccc(F)cc1 (centres unmarked) [Compound 15, N^1,N^3-bis-(1-(2-(4-fluorophenyl)-4-oxothiazolidin-3-ylamino)-1-oxopropan-2-yl) isophthalamide] as the molecule, how does the melting point read?
The melting point was 168 to 170 °C.

With COc1cccc2c1C(=O)c1c(O)c3c(c(O)c1C2=O)C[C@@](O)(C(=O)CO)C[C@@H]3O[C@H]1C[C@H](N)[C@H](O)[C@H](C)O1 [Doxorubicin, reference compound] as the molecule, how does the IC50 (HCT-116 cell line) read?
The IC50 was 65 nM.
